In PubChem BioAssay AID2305 (GlaxoSmithKline (GSK), 2010):
pIC50: −log10 of the molar value.

Each compound was assayed on P. falciparum 3D7 growth, pLDH absorbance (assay: blood-stage malaria parasite growth potency – strain 3D7, dose response (AID 2305)).

| Structure (SMILES) | pIC50 |
| --- | --- |
| Cc1ccccc1NC(=O)NC1CCN(CCCCCNC(=O)/C=C/c2ccc(Cl)c(Cl)c2)CC1 | 6.11 |
| CC(=O)NCCNCc1cccc(C(=O)NCc2cccc(C(F)(F)F)c2)c1 | 5.97 |
| O=C(Nc1ccnc(N2CCCN(Cc3cccc(O)c3)CC2)c1)c1ccc(F)cc1 | 5.83 |
| CCN(CC)CCOc1ccc(C(O)(C#CC(O)(c2ccccc2)c2ccc(OCCN(CC)CC)cc2)c2ccccc2)cc1 (centres undefined) | 5.88 |
| O=C(NCCCCN1CCC(c2ccc3c(c2OC(=O)c2ccc(NC(=O)c4ccc(Cl)cc4)cc2)CCCC3)CC1)c1ccc(NC(=O)c2ccc(Cl)cc2)cc1 | 6.70 |
| O=C(NC1CCN(CCc2c[nH]c3ccc(F)cc23)CC1)c1ncc(-c2ccccc2)[nH]1 | 6.06 |
| Cc1cc(Nc2cccc(C(F)(F)F)c2)nc2ccc(NC(=O)c3ccc(=O)[nH]c3)cc12 | 6.31 |
| CC(C)(C)c1ccccc1SC1=C(O)CC2(CCNCC2)OC1=O | 6.06 |
| COc1ccc(OCC(O)CN(Cc2ccccc2OC)C(=O)Nc2ccc(Br)cc2)cc1 (centres undefined) | 6.12 |
| Fc1ccc(C(OCC2CCCN(Cc3cccc4cccnc34)C2)c2ccc(F)cc2)cc1 (centres undefined) | 6.15 |
| NC(=Nc1nc(-c2ccccn2)cc2ccccc12)c1cccc(Cl)c1 | 6.51 |
| CC1(C)CN(CCC2CCC(NC(=O)/C=C/c3ccc(F)cc3F)CC2)Cc2ccc(C#N)cc21 (centres undefined) | 6.10 |
| Cc1cc(-c2cccc(CNC3CCN(C)CC3)c2)ccc1S(=O)(=O)NCc1ccccc1 | 6.09 |
| Oc1cccc(-c2nc(-c3ccccc3)c(-c3ccc4oc5ccc(-c6[nH]c(-c7cccc(O)c7)nc6-c6ccccc6)cc5c4c3)[nH]2)c1 | 6.10 |
| Fc1ccc2nccc(NN=Cc3ccccc3Cl)c2c1 | 6.04 |
| CC(=O)c1c(Cc2cccc(C(F)(F)F)c2)c[nH]c1C | 6.46 |
| Cc1cccc2[nH]c(-c3ccc(-c4ccc(CN5CCN(C6CCN(C)CC6)CC5)cc4)s3)nc12 | 6.85 |
| CC(C)CN1CCCN(Cc2cccc(NC(=O)c3cc4ccccc4s3)c2)CC1 | 5.75 |
| O=C(Cc1cccc2ccccc12)N1CCc2cc3nccc(N4CCN5CCC[C@H]5C4)c3cc21 | 6.11 |
| CCc1cc2c(N)nc(N)nc2nc1-c1ccccc1 | 6.02 |
| O=[N+]([O-])c1cccc(Nc2nccc(-c3cnn4ncccc34)n2)c1 | 6.74 |
| O=[N+]([O-])c1ccccc1C=NNc1ccnc2ccccc12 | 6.07 |
| Cc1cc(N2Cc3ccccc3C2)nc(Nc2cccc(C#N)c2)n1 | 6.77 |
| CC(=O)c1sc(NC(=O)Nc2ccc(C)cc2C)nc1C | 6.04 |
| Oc1cccc(-c2nc(-c3cccc(I)c3)c(-c3ccc(-c4nc(-c5cccc(O)c5)[nH]c4-c4cccc(I)c4)cc3)[nH]2)c1 | 6.04 |

| Structure (SMILES) | pIC50 |
| --- | --- |
| O[C@H]1[C@H](OCc2ccc(-c3ccccc3)cc2)CC[C@@H]1N1CCCCC1 | 5.97 |
| COc1cc(-c2cc(-c3ccc(OCCN(C)C)cc3)[nH]c2-c2ccncc2)ccc1Cl | 6.15 |
| COc1ccc(Nc2ccnc3cc(Cl)ccc23)cc1OC | 5.95 |
| O=C(c1cc(-c2cccs2)[nH]n1)N1CCN(S(=O)(=O)c2ccc(Br)cc2)CC1 | 6.44 |
| CC(=O)Nc1ncc(C(=O)Nc2cccc(-c3cccc(-c4nc5ccccc5[nH]4)c3)c2)s1 | 6.09 |
| Cc1[nH]c(C)c(-c2ccc(OCCOc3ccc(C(F)(F)F)cn3)cc2)c(=O)c1Br | 6.85 |
| COc1cc(CNC2Cc3ccccc3C2)ccc1Oc1ccc2nc[nH]c2c1 | 6.02 |
| CO/C(=C\C=C\c1cc2cc(Cl)c(Cl)cc2[nH]1)C(=O)NCCCN1CCN(c2cccc(OC)c2)CC1 | 6.08 |
| COC(=O)c1cccc(CN(CCC(O)(C(F)(F)F)C(F)(F)F)C(=O)CC2CCCC2)c1 | 6.04 |
| CCNc1cc(C(=O)N[C@@H](Cc2ccccc2)[C@H](O)CN[C@@H](C)c2cccc(OC)c2)cc(N2CCCC2=O)c1 | 6.11 |
| O=C(c1ccc(Cl)cc1)N1CCCC(C(=O)N(Cc2nnc(-c3ccccc3Cl)o2)C2CC2)C1 (centres undefined) | 6.64 |
| Cn1c(-c2ccccc2)cc2c3c(=O)cc(C(F)(F)F)[nH]c3ccc21 | 6.07 |
| COc1ccc2nc3cc(Cl)ccc3c(Nc3ccc(Oc4ccc(Nc5c6ccc(Cl)cc6nc6ccc(OC)cc56)cc4)cc3)c2c1 | 6.07 |
| CN1CCC(Oc2ccc(Nc3nccc(NCC(O)c4ccccc4)n3)cc2Cl)CC1 (centres undefined) | 6.10 |
| O=C(CC(c1ccccc1)c1ccccc1O)N1CCOCC1 (centres undefined) | 5.82 |
| O=C(NCCN1CCCC1)c1ccc(-c2cccc(-c3nc4ccc(F)cc4[nH]3)c2)cc1 | 6.11 |
| O=C(Nc1cccc(CN2CCCN(Cc3ccc(O)cc3)CC2)c1)c1cc(F)cc(F)c1 | 6.18 |
| CN1CCC(NCc2cccc(-c3ccc(S(=O)(=O)NCc4ccccc4)c(F)c3)c2)CC1 | 6.48 |
| COc1ccc(-c2cnc3ccc(NC4CCC(O)CC4)nn23)cn1 (centres undefined) | 6.15 |
| COC(=O)c1ccc(CC(C)NCC(O)c2cccc3ccccc23)cc1 (centres undefined) | 6.03 |
| COc1ccc(-c2cnc(N)c(-c3nc4ccc(Br)cc4[nH]3)c2)cc1 | 5.81 |
| O=C(Nc1ccc(Cn2nc(Cl)c(N3CCNCC3)cc2=O)cc1)Nc1ccc(-c2ccccc2)cc1 | 6.12 |
| CCOc1cc(C(=O)NCc2ccc(Cl)c(Cl)c2)ccc1-c1nc2ccc(Cl)cc2[nH]1 | 6.10 |
| NS(=O)(=O)c1ccc(CNC(=O)c2cnc3c(O)cccc3c2Nc2cccc(NC(=O)c3ccc(Cl)c(Cl)c3)c2)cc1 | 5.76 |
| COc1cccc(C(=O)OC2=C3CCC(=O)C3(C)CCC2=O)c1 (centres undefined) | 7.10 |

| Structure (SMILES) | pIC50 |
| --- | --- |
| CN(CCN)Cc1cccc(-c2ccc(-c3nc4ccc(C(F)(F)F)cc4[nH]3)s2)c1 | 6.00 |
| O=C(Nc1cccc(-c2ccc(-c3nc4ccc(F)cc4[nH]3)cc2)c1)Nc1ccc(Cl)c(Cl)c1 | 6.85 |
| S=C(NN=Cc1ccccn1)Nc1ccc2c(c1)OCCO2 | 5.98 |
| Cc1cccc(NC(=O)c2ccc(C(=O)NC3CCN(CC4CCCCC4)C3)cc2)c1 (centres undefined) | 6.04 |
| CC(C)CCOc1ccc(NC(=O)c2cccs2)cc1 | 6.29 |
| O=C(Nc1cccc(-c2cc(-c3c(Cl)cccc3Cl)no2)c1)c1cnc2ccccc2c1 | 5.96 |
| Cc1cc(-c2nc3cncc(-c4cccc(CN5CCCC5Cc5cccnc5)c4)c3n2C)nn1C (centres undefined) | 6.89 |
| C[C@H](Nc1c(Nc2ccc3[nH]ccc3c2)c(=O)c1=O)C1CCCCC1 | 6.68 |
| COc1ccc(F)cc1-c1csc(N(c2ccc(F)cc2)C2CCNCC2)n1 | 5.92 |
| CCc1cc2c3c(N)nc(N)nc3ccc2n1CC | 8.00 |
| CCc1cn(C)c2c(N3CCCC3=O)cc(C(=O)N[C@@H](Cc3ccccc3)[C@H](O)CNC(C)(C)CCCC(C)C)cc12 | 6.31 |
| CCN1CCCC1CNC(=O)c1cc2c(-c3ccc(Cl)cc3)nn(C)c2s1 (centres undefined) | 6.10 |
| Cc1cccc2[nH]c(-c3ccc(-c4cccc(NC(=O)c5cncn5C)c4)cc3)nc12 | 6.07 |
| CCCCCCN1CCCN(Cc2ccc(C(=O)Nc3ccc(C)c(F)c3)cc2)CC1 | 6.48 |
| Cc1cccc(NC(=O)c2ccc(C(=O)NC3CCN(CC4CCCCC4)CC3)cc2)c1 | 6.09 |
| COc1ccc(CC2(c3ccc(F)cc3)N=C(N)N(CCCc3ccc4c(c3)OCO4)C2=O)cc1 (centres undefined) | 6.13 |
| COc1ccc2nc3ccccc3c(NCCN3CCN(C)CC3)c2c1 | 5.89 |
| O=C(/C=C/c1ccc(Cl)c(Cl)c1)NCCCCCN1CCC(NC(=O)NC2CCCC2)CC1 | 6.20 |
| O=C(Cn1c(SCc2cccc(F)c2F)cc(=O)c2ccccc21)N(CCc1cnc[nH]1)Cc1ccc(-c2ccc(C(F)(F)F)cc2)cc1 | 6.10 |
| Cc1cc(Nc2nc(Nc3cccc(Cl)c3)nc3ccccc23)n[nH]1 | 6.54 |
| O=C(Nc1nc(-c2cc(F)ccc2F)cs1)c1cncc(Br)c1 | 5.97 |
| COc1ccc2nccc([C@@H](O)CN3CCC(NCc4cc5oc(=O)[nH]c5cc4F)CC3)c2c1 | 6.11 |
| CCN1CCN(C(=O)NC(C(=O)N2CCCC(COc3ccc(Cc4ccccc4)cc3)C2)c2cccs2)C(=O)C1=O (centres undefined) | 6.32 |
| CO/C(=C\C=C\c1cc2cc(Cl)c(Cl)cc2[nH]1)C(=O)NC1C[C@H]2CC[C@@H](C1)N2C (some centres undefined) | 5.99 |
| CN1CCN(CCNc2c3ccccc3nc3c2ccc2ccccc23)CC1 | 6.21 |

| Structure (SMILES) | pIC50 |
| --- | --- |
| CCN(CCCN1CCCCC1)c1cc(C)nc(Nc2ccc(F)c(C(F)(F)F)c2)n1 | 6.82 |
| CCOC(=O)c1ccc(NC(=O)Nc2cccc(-c3cccc(-c4nc5ccccc5[nH]4)c3)c2)cc1 | 7.15 |
| CC(Oc1ccc(C(=O)c2ccc(F)cc2)cc1)C(=O)N1CCc2ccccc21 (centres undefined) | 6.39 |
| O=C(/C=C/c1ccc(Cl)c(Cl)c1)NCCCCCN1CCCN(C(=O)Nc2ccc(OC(F)F)cc2)CC1 | 6.08 |
| COc1cc2ncnc(Nc3ccc(OCc4ccccc4)c(OCc4ccccc4)c3)c2cc1OC | 6.13 |
| CCCCC(=O)Nc1nonc1-c1ccc(OCC)c(OCC)c1 | 6.04 |
| CCN(CC)CCCNC(=O)/C(=C/C=C/c1cc2cc(Cl)c(Cl)cc2[nH]1)OC | 5.94 |
| COc1cc(NC(=O)/C=C/c2ccc(-c3ccccc3)cc2)ccc1OCCN(C(C)C)C(C)C | 6.08 |
| COc1ccc2c(NN=Cc3ccncc3)cc(C)nc2c1 | 6.09 |
| CC(=O)Nc1ccc(OCCCN(Cc2ccccc2OC(F)(F)F)c2ccc(C(F)(F)F)c(C#N)c2)c(Cl)c1 | 6.09 |
| Cc1ccc2nc3sc(C(=O)NCCCN4CCC(N5CCCCC5)CC4)cc3cc2c1 | 6.17 |
| COc1cc2nc(NCCc3ccccc3)nc(NCCc3ccccc3)c2cc1OC | 6.55 |
| COc1ccc(CN(C)CC(O)COc2ccc(NC(=O)c3cccc4c(=O)c5cccc(OC)c5[nH]c34)cc2)cc1OC (centres undefined) | 6.11 |
| C=CCc1cc(Br)ccc1OCCCOc1c(N)nc(N)nc1N | 6.72 |
| Cc1cc(N[C@@H](Cc2ccccc2)C(=O)Nc2ccccc2)nc(NCCc2cccs2)n1 | 6.10 |
| CC1CCN(C(=O)C(Cc2c[nH]c3ccccc23)NS(=O)(=O)c2ccc(Cl)cc2)CC1 (centres undefined) | 6.14 |
| Cc1[nH]c(C)c(-c2ccc(Oc3ccc(S(C)=O)cc3)cc2)c(=O)c1Br (centres undefined) | 6.12 |
| COc1cc(F)c2nccc([C@@H](O)CN3CCC(NCc4cc5c(cc4F)OCCO5)CC3)c2c1 | 6.17 |
| Cc1sc(CNCCCNc2cc(=O)c3ccccc3[nH]2)cc1Br | 6.12 |
| O=C(Nc1ccc(Cl)cc1F)N[C@H]1CCN(CCCCCNC(=O)[C@@H]2C[C@H]2c2ccc(Cl)c(Cl)c2)C1 | 5.96 |
| CC(NC(=O)c1cc(-c2ccccc2)nc2c1cnn2C(C)C)C1CC1 (centres undefined) | 5.89 |
| CC(C)(C)Nc1cc(C2CC2)nc(-c2ccccn2)n1 | 6.17 |
| C[C@@H]1CN(CCCn2c3ccccc3c3ccc(C(=O)CCCN(C)C)cc32)C[C@H](C)N1 | 6.09 |
| O=C(CCC1CCCCC1)NCCNc1cccc2ccccc12 | 6.08 |
